Data from US9150592B2, “Heterocyclic nuclear hormone receptor modulators” (AbbVie Inc., priority 2012, dated 2015).
Each block holds one compound with its values, some of them ahead of it.

Experiments:
[1] = test system: IL-6 in A549 cells stimulated with IL-1β; assay: A549 Cell Assay to Measure Inflammation Markers (inhibition of IL-1β-induced IL-6); type: cell-based; details: intrinsic activity, Emax class ranges; for Emax: Homo sapiens, A549, A549 Cell Assay to Measure Inflammation Markers; for A549 Emax: A549 Cell Assay to Measure Inflammation Markers
Protocol: A549 Cell Assay to Measure Inflammation Markers
Further dilution (1:250) of compound was made into assay medium and 50 μL/well diluted drug or DMSO/media control was applied to cells. After a 1 h pre-incubation in a temperature, CO2, and humidity controlled incubator, set to 37° C., 50 μL/well of 4 ng/mL IL-1β diluted in assay media, was applied to cultures. Assay plates, with a final volume of 200 μL/well and final concentrations of 0.1% DMSO and 1 ng/mL IL-1β were returned to incubator for a […] incubation period. Next, plates were spun at 183 g (1000 rpm in Beckman/Coulter Allegra 6KR centrifuge) for 10 min. Cell-free supernatant (150 μL/well) was collected and IL-6 was measured by MSD kit, following protocol of manufacturer, and using MSD SECTOR Imager 6000 instrument. […] Results were represented as IC50 and Emax values.

[2] = target: T1, Glucocorticoid Receptor (GR) (Homo sapiens, UniProt P04150); assay: GR Fluorescence Polarization Assay (PolarScreen Glucocorticoid Receptor Competitor Assay, Red); details: IC50 class ranges, read-out: GR binding
T1 construct: purchased Invitrogen P2893
T1 sequence (P04150 1-777): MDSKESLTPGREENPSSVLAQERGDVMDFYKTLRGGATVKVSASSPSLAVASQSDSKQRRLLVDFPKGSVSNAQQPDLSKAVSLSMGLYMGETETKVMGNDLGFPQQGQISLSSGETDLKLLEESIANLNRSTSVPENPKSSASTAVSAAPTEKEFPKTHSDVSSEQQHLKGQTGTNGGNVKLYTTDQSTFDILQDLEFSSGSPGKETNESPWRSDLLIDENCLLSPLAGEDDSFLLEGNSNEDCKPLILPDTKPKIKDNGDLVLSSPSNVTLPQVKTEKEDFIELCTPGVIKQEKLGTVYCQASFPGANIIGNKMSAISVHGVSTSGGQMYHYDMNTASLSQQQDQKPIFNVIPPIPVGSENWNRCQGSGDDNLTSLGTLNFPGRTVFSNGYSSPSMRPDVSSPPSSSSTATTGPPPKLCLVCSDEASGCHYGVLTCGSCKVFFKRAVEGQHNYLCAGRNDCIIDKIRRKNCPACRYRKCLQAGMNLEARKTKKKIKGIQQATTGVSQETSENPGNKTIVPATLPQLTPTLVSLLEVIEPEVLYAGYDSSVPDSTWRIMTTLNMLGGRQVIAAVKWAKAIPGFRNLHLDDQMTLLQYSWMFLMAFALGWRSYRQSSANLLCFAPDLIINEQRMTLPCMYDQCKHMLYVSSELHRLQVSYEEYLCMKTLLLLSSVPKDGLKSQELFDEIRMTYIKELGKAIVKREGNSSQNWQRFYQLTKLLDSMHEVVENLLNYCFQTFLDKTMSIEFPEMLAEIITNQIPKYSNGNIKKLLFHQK
Protocol: GR Fluorescence Polarization Assay
Fluorescence polarization assays were carried out using the PolarScreen™ Glucocorticoid Receptor Competitor Assay, Red from Invitrogen (P2893). The assay buffer was prepared according to the manufacturer's protocol and used to dilute the fluorescent glucocorticoid and GR. Compounds were prepared and serial diluted 1:4 in DMSO. Compound, fluorescent glucocorticoid and GR were added in a final volume of 20 μL and incubated overnight at 4° C. Fluorescent polarization was measured on the PerkinElmer Envision®.

IC50 [2]: > 10000 nM
SMILES: CC(=O)N1CCC(C2SCCNc3c2c(-c2ccccn2)nn3C)CC1 (stereo not shown)
Emax [1]: < 50%

SMILES: Cc1cc(OCc2cccnc2)ccc1C1SCCNc2c1c(-c1ccccn1)nn2C (stereo not shown)
Emax [1]: < 50% | IC50 [2]: 100 to 1000 nM

SMILES: Cc1cc(OCc2cccnc2C)ccc1C1SCCNc2c1c(-c1ccccn1)nn2C (stereo not shown)
Emax [1]: < 50% | IC50 [2]: < 100 nM

SMILES: Cc1cc(S(C)(=O)=O)ccc1C1SCCNc2c1c(-c1ccccn1)nn2C (stereo not shown)
Emax [1]: < 50% | IC50 [2]: 100 to 1000 nM

IC50 [2]: > 10000 nM
SMILES: Cc1nn(C)c2c1C(c1ccc(Cl)cc1Cl)SC(C)(C)CN2CC(O)C(F)(F)F (stereo not shown)
Emax [1]: < 50%

SMILES: Cn1nc(-c2ccccn2)c2c1NCCSC2c1ccc(C(=O)O)cc1Cl (stereo not shown)
Emax [1]: < 50% | IC50 [2]: 100 to 1000 nM

SMILES: Cc1ncccc1NC(=O)c1ccc([C@H]2SCCNc3c2c(-c2ccccn2)nn3C)c(Cl)c1
A549 Emax [1]: A (a compound with Emax>70%) | IC50 [2]: < 100 nM

SMILES: Cc1cc(C(=O)Nc2cccnc2C)ccc1C1SCCNc2c1c(-c1ccccn1)nn2C (stereo not shown)
Emax [1]: > 70% | IC50 [2]: < 100 nM

SMILES: Cc1ccc(C2SCCNc3c2c(-c2ccccn2)nn3C)c(Cl)c1 (stereo not shown)
Emax [1]: < 50% | IC50 [2]: < 100 nM

SMILES: Cn1nc(-c2ccccn2)c2c1NCCSC2c1ccccc1Cl (stereo not shown)
Emax [1]: < 50% | IC50 [2]: < 100 nM

IC50 [2]: 1000 to 10000 nM
SMILES: Cc1nn(C)c2c1C(c1ccc(Cl)cc1Cl)SC(C)(C)CN2C=O (stereo not shown)
Emax [1]: < 50%

IC50 [2]: 1000 to 10000 nM
SMILES: Cc1nn(C)c2c1C(c1ccc(Cl)cc1Cl)SC(C)(C)C(=O)N2C (stereo not shown)
Emax [1]: < 50%

IC50 [2]: 100 to 1000 nM
SMILES: Cc1nn(C)c2c1C(c1ccc(Cl)cc1Cl)SC(C)(C)CN2C (stereo not shown)
Emax [1]: < 50%

SMILES: Cn1nc(-c2ccccn2)c2c1NCCSC2c1ccc(Br)cc1Cl (stereo not shown)
Emax [1]: < 50% | IC50 [2]: < 100 nM

SMILES: Cc1cc(Br)ccc1C1SCCNc2c1c(-c1ccccn1)nn2C (stereo not shown)
Emax [1]: > 50% | IC50 [2]: < 100 nM

SMILES: CCc1cc(Cl)ccc1C1SCCNc2c1c(-c1ccccn1)nn2C (stereo not shown)
Emax [1]: > 50% | IC50 [2]: < 100 nM

SMILES: Cc1cc(Cl)ccc1C1SCCNc2c1c(-c1ccn[nH]1)nn2C (stereo not shown)
Emax [1]: < 50% | IC50 [2]: 100 to 1000 nM

SMILES: CC1=Nc2c(c(-c3ccccn3)nn2C)C(c2ccc(Cl)cc2C)SC1 (stereo not shown)
Emax [1]: < 50% | IC50 [2]: 100 to 1000 nM

SMILES: C=Cc1cc(Cl)ccc1C1SCCNc2c1c(-c1ccccn1)nn2C (stereo not shown)
Emax [1]: > 60% | IC50 [2]: < 100 nM

IC50 [2]: < 100 nM
SMILES: Cc1cc(Cl)ccc1[C@H]1SC(C)(C)CNc2c1c(C1CC1)nn2C
Emax [1]: > 60%

SMILES: Cc1cc(Cl)ccc1[C@H]1SC[C@H](C)Nc2c1c(-c1ccccn1)nn2C
Emax [1]: < 50% | IC50 [2]: 1000 to 10000 nM

IC50 [2]: 100 to 1000 nM
SMILES: Cc1cc(Cl)ccc1[C@@H]1SC(C)(C)CNc2c1c(C1CC1)nn2C
Emax [1]: < 50%

SMILES: Cc1cc(Cl)ccc1[C@@H]1SC[C@@H](C)Nc2c1c(-c1ccccn1)nn2C
Emax [1]: > 70% | IC50 [2]: < 100 nM

IC50 [2]: < 100 nM
SMILES: CCn1nc(-c2ccccn2)c2c1NCCCC2c1ccc(Br)cc1 (stereo not shown)
Emax [1]: > 70%

SMILES: Cc1cc(C(=O)Nc2cccnc2C)ccc1[C@H]1SCCNc2c1c(-c1ccccn1)nn2C
A549 Emax [1]: B (a compound with Emax>60%) | IC50 [2]: 100 to 1000 nM

SMILES: Cc1cc(C(=O)Nc2cccnc2C)ccc1[C@@H]1SCCNc2c1c(-c1ccccn1)nn2C
A549 Emax [1]: A (a compound with Emax>70%) | IC50 [2]: < 100 nM

SMILES: Cn1nc([C@@H]2CCCN2)c2c1NCCSC2c1ccc(Cl)cc1Cl (mixture of isomers)
Emax [1]: < 50% | IC50 [2]: > 10000 nM

SMILES: Cc1cc(Cl)ccc1C1SCCNc2c1c([C@@H]1CCCN1)nn2C (mixture of isomers)
Emax [1]: < 50% | IC50 [2]: 1000 to 10000 nM

SMILES: Cc1cc(Br)ccc1[C@H]1SC[C@H](C(N)=O)Nc2c1c(-c1ccccn1)nn2C (racemic)
Emax [1]: < 50% | IC50 [2]: 100 to 1000 nM

SMILES: Cc1cc(Br)ccc1C1SCC(C#N)Nc2c1c(-c1ccccn1)nn2C (racemic)
Emax [1]: > 60% | IC50 [2]: < 100 nM

SMILES: Cc1cc(Br)ccc1[C@H]1SC[C@H](CC#N)Nc2c1c(-c1ccccn1)nn2C (racemic)
Emax [1]: > 50% | IC50 [2]: < 100 nM

SMILES: Cc1cc2c(cnn2-c2ccc(F)cc2)cc1C1SCC(=O)Nc2c1c(-c1ccccn1)nn2C (racemic)
Emax [1]: > 70% | IC50 [2]: < 100 nM

IC50 [2]: < 100 nM
SMILES: Cc1cc(Cl)ccc1[C@@H]1S[C@@H](CCO)[C@@H](C)Nc2c1c(C)nn2C (racemic)
Emax [1]: > 70%

SMILES: Cc1cc(Br)ccc1[C@H]1SC[C@@H](C(F)(F)F)Nc2c1c(-c1ccccn1)nn2C (racemic)
Emax [1]: < 50% | IC50 [2]: < 100 nM

SMILES: Cc1cc(Br)ccc1[C@H]1SC[C@H](C(F)(F)F)Nc2c1c(-c1ccccn1)nn2C (racemic)
Emax [1]: < 50% | IC50 [2]: 100 to 1000 nM

IC50 [2]: < 100 nM
SMILES: Cc1cc(C(=O)Nc2cccnc2C)ccc1[C@H]1CC[C@](O)(C(F)(F)F)Cc2c1c(-c1ccccn1)nn2C (racemic)
Emax [1]: > 70%

IC50 [2]: < 100 nM
SMILES: Cc1cc(C(=O)Nc2cccnc2C)ccc1[C@H]1CC[C@@](O)(C(F)(F)F)Cc2c1c(-c1ccccn1)nn2C (racemic)
Emax [1]: > 70%

SMILES: Cc1cc(Cl)ccc1C1SCC(C)Nc2c1c(-c1ccccn1)nn2C (racemic) [4-(4-chloro-2-methyl-phenyl)-1,7-dimethyl-3-(2-pyridyl)-4,6,7,8-tetrahydropyrazolo[3,4-e][1,4]thiazepine]
Emax [1]: > 70% | IC50 [2]: < 100 nM

IC50 [2]: < 100 nM
SMILES: Cc1cc(C#N)ccc1[C@H]1S[C@@H](C)CNc2c1c(C1CC1)nn2C (racemic) [G.3]
Emax [1]: < 50%

IC50 [2]: < 100 nM
SMILES: Cc1cc(C#N)ccc1[C@@H]1S[C@@H](C)CNc2c1c(C1CC1)nn2C (racemic) [G.4]
Emax [1]: < 50%

IC50 [2]: 1000 to 10000 nM
SMILES: Cc1cc(Cl)ccc1[C@H]1SC(C)(C)[C@@H](c2ccccc2)Nc2c1c(C)nn2C (racemic) [K.2]
Emax [1]: < 50%

SMILES: Cc1cc(Cl)ccc1[C@H]1SC[C@@H](C)Nc2c1c(C)nn2C (racemic) [K.7]
Emax [1]: < 50% | IC50 [2]: < 100 nM

SMILES: Cc1cc(Br)ccc1[C@@H]1SC[C@H](CO)Nc2c1c(-c1ccccn1)nn2C (racemic) [K.9]
Emax [1]: < 50% | IC50 [2]: < 100 nM

SMILES: Cc1cc(Br)ccc1[C@@H]1SC[C@@H](CO)Nc2c1c(-c1ccccn1)nn2C (racemic) [K.10, rac-((4R,7S)-4-(4-bromo-2-methylphenyl)-1-methyl-3-(pyridin-2-yl)-4,6,7,8-tetrahydro-1H-pyrazolo[3,4-e][1,4]thiazepin-7-yl)methanol]
Emax [1]: > 60% | IC50 [2]: < 100 nM

SMILES: Cc1ncccc1NC(=O)c1ccc(C2SCCNc3c2c(-c2ccccn2)nn3C)c(Cl)c1 (single isomer, unassigned)
Emax [1]: < 50% | IC50 [2]: 1000 to 10000 nM

SMILES: Cc1cc(Cl)ccc1C1SCCNc2c1c(-c1ccccn1)nn2C (single isomer, unassigned)
Emax [1]: < 50% | IC50 [2]: 100 to 1000 nM

SMILES: Cc1cc(Cl)ccc1C1SCC(C)Nc2c1c(-c1ccccn1)nn2C (single isomer, unassigned)
Emax [1]: < 50% | IC50 [2]: 1000 to 10000 nM

SMILES: Cc1cc(C(=O)Nc2cccnc2C)ccc1C1SCC(CO)Nc2c1c(-c1ccccn1)nn2C (single isomer, unassigned)
Emax [1]: > 70% | IC50 [2]: < 100 nM

IC50 [2]: 100 to 1000 nM
SMILES: Cc1cc(Cl)ccc1C1SC(CCO)C(C)Nc2c1c(C)nn2C (single isomer, unassigned)
Emax [1]: > 70%

SMILES: Cc1cc(Cl)ccc1C1SCCNc2c1c(-c1ccccn1)nn2C (single isomer, unassigned) [(4S)-4-(4-chloro-2-methyl-phenyl)-1-methyl-3-(2-pyridyl)-4,6]
A549 Emax [1]: B (a compound with Emax>60%)

SMILES: Cc1cc(Cl)ccc1C1SCC(C)Nc2c1c(-c1ccccn1)nn2C (single isomer, unassigned) [(4S,7S)-4-(4-chloro-2-methylphenyl)-1,7-dimethyl-3-(pyridin-]
A549 Emax [1]: D (a compound with Emax<50%)

SMILES: Cn1nc(-c2ccccn2)c2c1NCCS[C@@H]2c1ccc(Br)cc1Cl (single isomer, unassigned) [M.1, 4-(4-bromo-2-chlorophenyl)-1-methyl-3-(pyridin-2-yl)-4,6,7,8-tetrahydro-1H-pyrazolo[3,4-e][1,4]thiazepine]
Emax [1]: < 50% | IC50 [2]: 100 to 1000 nM

IC50 [2]: 1000 to 10000 nM
SMILES: Cn1nc(-c2ccccn2)c2c1NCCSC2c1ccc(-c2cnc(N3CCOCC3)nc2)cc1Cl (stereo not shown) [U.19]
